Experimental data as given in PMC12263422, “Cryo-EM structure of the human THIK-1 K2P K^+ channel reveals a lower Y gate regulated by lipids and anesthetics” (Nature Structural & Molecular Biology, 2025).
Where “and” joins values, the source holds several entries; their conditions need not be identical. Equal values may be shown once. Values belong to the compound of their own block, whether it stands above or below them.

Target: T1, THIK-1 Y273A (Homo sapiens, UniProt Q9HB14, Y273A)
T1 construct: expressed in transfected cells; host or cells: Xenopus oocytes (mRNA injection)
T1 sequence (Q9HB14 1-408 Y273A): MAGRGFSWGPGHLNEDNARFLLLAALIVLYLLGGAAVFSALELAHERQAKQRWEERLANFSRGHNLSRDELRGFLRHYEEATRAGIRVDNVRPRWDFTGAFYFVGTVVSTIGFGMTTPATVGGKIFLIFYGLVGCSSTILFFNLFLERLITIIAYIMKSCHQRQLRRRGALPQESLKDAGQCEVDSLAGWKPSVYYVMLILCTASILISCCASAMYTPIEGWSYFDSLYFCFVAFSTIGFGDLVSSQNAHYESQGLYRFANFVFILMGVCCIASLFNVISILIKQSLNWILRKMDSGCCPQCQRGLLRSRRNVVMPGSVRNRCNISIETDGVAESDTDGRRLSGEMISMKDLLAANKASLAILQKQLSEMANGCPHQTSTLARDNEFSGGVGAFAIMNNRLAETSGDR
Experiment: Inside-out excised patch recordings, oocytes, THIK-1 Y273A mutant
Format: cell-based
Set-up: Halothane inhibition: concentration or dose not given beside the values
Source text: Human K2P13.1 THIK-1 (GenBank accession number: NM_022054) and human K2P12.1 THIK-2 (NM_022055.1) were used in this study. For functional expression studies, the respective K^+ channel subtype coding sequences were subcloned into the oocyte expression vector pSGEM or the dual-purpose expression vector pFAW[41] and verified by sequencing. All mutant channels were obtained by site-directed mutagenesis and verified by sequencing. To increase surface expression and macroscopic currents, measurements of THIK-2 channels used a mutated ER retention motif, (R11A R12A R14A R15A R16A; THIK-2*)[20]. Vector DNA was linearized with NheI or MluI, and mRNA was synthesized in vitro using the SP6 or T7 AmpliCap Max High Yield Message Maker Kit (Cellscript, USA) or HiScribe T7 ARCA mRNA Kit (New England Biolabs).
Two-electrode voltage–clamp (TEVC) studies were performed in Xenopus oocytes. All animal use conformed to the Guide for the Care and Use of Laboratory Animals (NIH Publication 85–23), and all experiments using Xenopus toads were approved by the local ethics panels. Oocytes were stored at 17 °C in ND96 recording solution composed of (in mM): 96 NaCl, 2 KCl, 1.8 CaCl2, 1 MgCl2, 5 HEPES (pH 7.5 adjusted with NaOH and HCl), supplemented with Na-pyruvate (275 mg L^–1), theophylline (90 mg L^–1) and gentamicin (50 mg L^–1). Oocytes were injected with 1 ng mRNA for WT or mutant channels, and were incubated for 24–48 h at 17 °C. Two-electrode voltage clamp recordings were then performed as previously described[42],[43]. For macroscopic patch–clamp measurements, oocytes were obtained as described above incubated at 17 °C in a solution containing (mM): 54 NaCl, 30 KCl, 2.4 NaHCO3, 0.82 MgSO4 ×7 H2O, 0.41 CaCl2, 0.33 Ca(NO3)2 ×4 H2O and 7.5 TRIS (pH 7.4 adjusted with NaOH and HCl) for 1–4 days before use. Excised patch recordings in inside-out configuration conditions were performed at room temperature. […] Intracellular bath solutions and compounds were applied to the cytoplasmic side of excised patches for the various K^+ channels through a gravity flow multi-barrel pipette system. The intracellular solution had the following composition (in mM): 120 KCl, 10 HEPES, 2 EGTA and 1 pyrophosphate (pH adjusted with KOH and HCl). Currents were recorded with an EPC10 amplifier (HEKA Electronics) and sampled at 10 kHz or higher, with filtering set to 3 kHz (–3 dB) or higher, as appropriate for sampling rate. For measurements of GPCR activation, whole-cell currents were recorded for THIK-1 in transiently transfected HEK-293 cells. Cells were stimulated by a ramp protocol between −100 and +60 mV (holding potential, −80 mV). The pipette solution was composed of (in mM): 140 KCl, 2 MgCl2, 1 CaCl2, 2.5 EGTA and 10 HEPES (pH 7.3 adjusted with KOH and HCl). The extracellular bath solution had the following composition (in mM): 135 NaCl, 5 KCl, 2 MgCl2, 2 CaCl2, 10 glucose and 10 HEPES pH (pH 7.3 adjusted with NaOH and HCl). Oxotremorine M (Oxo-M) was added to extracellular bath solution to obtain the final concentration. Single-channel currents were recorded with an Axopatch 200B amplifier through a Digidata 1440A digitizer (Molecular Devices). Data were filtered at 2 kHz and recorded at a 200-kHz sampling rate with the program Clampex (Molecular Devices). Pipette solution and bath solution for cell-attached recordings contained (in mM): 140 KCl, 2 MgCl2, 1 CaCl2 and 10 HEPES (pH 7.4 adjusted with KOH and HCl). For inside-out recordings, the bath solution contained (in mM): 140 KCl, 2 MgCl2, 1 CaCl2 and 10 HEPES (pH 7.2 adjusted with KOH and HCl). All experiments were conducted at room temperature.
TPenA, linoleic acid, L-α-phosphatidylinositol 4,5-bisphosphate (brain PI(4,5)P2, PIP2) (Sigma-Aldrich and Merck) and oleoyl-CoA (LC-CoA 18:1) (Avanti Polar Lipids) were prepared as stocks (1–100 mM) in DMSO, stored at −80 °C and diluted to the final concentration in the intracellular recording solution. Oxo-M (Tocris Bioscience,) was prepared as 50 mM stock in H2O. […]

inhibition at 240 µM (0.24 mM Sevoflurane, Y273A, mean): 26.2%
inhibition at 23 µM (THIK-1 Y273A, 0.023 mM sevoflurane): 6.96%
inhibition at 47 µM (THIK-1 Y273A, 0.047 mM sevoflurane): 10.4%
inhibition at 468 µM (THIK-1 Y273A, 0.468 mM sevoflurane): 38.6%
inhibition at 2340 µM (THIK-1 Y273A, 2.34 mM sevoflurane): 62.5%
Structure (SMILES): FCOC(C(F)(F)F)C(F)(F)F [Sevoflurane, sevoflurane]
Inhibition (%) (0.24 mM Sevoflurane, Y273A, individual recordings): 39.37% and 26.75% and 26.20% and 15.99% and 28.93% and 17.93% and 28.11%

Structure (SMILES): CCCCC[N+](CCCCC)(CCCCC)CCCCC [TPenA, tetrapentylammonium]
Normalized currents (TPenA 0.1 µM, THIK-1 Y273A): 1.00
Normalized currents (TPenA 1 µM, THIK-1 Y273A): 0.96
Normalized currents (TPenA 4 µM, THIK-1 Y273A): 0.84
Normalized currents (TPenA 15.6 µM, THIK-1 Y273A): 0.65
Normalized currents (TPenA 62.5 µM, THIK-1 Y273A): 0.41
Normalized currents (TPenA 250 µM, THIK-1 Y273A): 0.19
Normalized currents (TPenA 1000 µM, THIK-1 Y273A): 0.07
Normalized currents (TPenA 4000 µM, THIK-1 Y273A): 0.03
τ of 1 mM TPenA block (Y273A, individual recordings): 0.054 s and 0.134 s and 0.071 s and 0.075 s and 0.076 s and 0.081 s and 0.059 s and 0.121 s and 0.057 s and 0.060 s
τ of 1 mM TPenA release (Y273A, individual recordings): 0.946 s and 0.858 s and 0.474 s and 1.777 s and 0.915 s and 1.232 s and 0.747 s and 0.935 s and 0.998 s and 1.301 s
τ of 1 mM TPenA block (Y273A, mean): 0.08 s
τ of 1 mM TPenA release (Y273A, mean): 1.02 s

inhibition at 242 µM (isoflurane 0.242 mM, THIK-1 Y273A): 9.07%
inhibition at 485 µM (isoflurane 0.485 mM, THIK-1 Y273A): 17.7%
inhibition at 2420 µM (isoflurane 2.42 mM, THIK-1 Y273A): 30.9%
inhibition at 4850 µM (isoflurane 4.85 mM, THIK-1 Y273A): 50.8%
inhibition at 24200 µM (isoflurane 24.2 mM, THIK-1 Y273A): 75%
Structure (SMILES): FC(F)OC(Cl)C(F)(F)F (stereo not drawn) [Isoflurane, isoflurane]
Inhibition (%) (4.9 mM Isoflurane, Y273A, individual recordings): 36.141% and 64.534% and 64.029% and 67.231% and 69.534% and 60.746% and 65.223% and 43.937% and 15.847% and 38.113% and 40.962% and 42.936%

inhibition at 3000 µM (3.0 mM halothane, Y273A, mean): 27.2%
Halothane inhibition (THIK-1 Y273A, 4 K+ ex., mean): 47.43%
Halothane inhibition (THIK-1 Y273A, 120 K+ ex., mean): 50.83%
Structure (SMILES): FC(F)(F)C(Cl)Br (stereo not drawn) [halothane]
Inhibition (%) (3.0 mM halothane, Y273A, individual recordings): 24.640% and 18.199% and 20.441% and 32.359% and 23.062% and 35.325% and 35.762% and 32.640% and 40.661% and 24.150% and 21.311% and 24.444% and 21.407% and 27.084%
Halothane inhibition (THIK-1 Y273A, 4 K+ ex., individual recordings): 48.800% and 50.390% and 50.850% and 54.290% and 50.150% and 44.140% and 43.970% and 46.310% and 43.270% and 42.110%
Halothane inhibition (THIK-1 Y273A, 120 K+ ex., individual recordings): 50.140% and 54.850% and 53.810% and 41.990% and 54.110% and 49.130% and 50.870% and 49.910% and 52.660%
